Target: T1, human SSAO T1 (Gly27-Asn763), C-terminal 6xHIS tag (Homo sapiens, UniProt Q16853)
T1 construct: T1 (Gly27-Asn763) Representing the Enzyme Lacking the Membrane Anchoring Region; additional N-terminal Met (N); expressed in transfected cells; cell lysate
T1 sequence (Q16853 27-763): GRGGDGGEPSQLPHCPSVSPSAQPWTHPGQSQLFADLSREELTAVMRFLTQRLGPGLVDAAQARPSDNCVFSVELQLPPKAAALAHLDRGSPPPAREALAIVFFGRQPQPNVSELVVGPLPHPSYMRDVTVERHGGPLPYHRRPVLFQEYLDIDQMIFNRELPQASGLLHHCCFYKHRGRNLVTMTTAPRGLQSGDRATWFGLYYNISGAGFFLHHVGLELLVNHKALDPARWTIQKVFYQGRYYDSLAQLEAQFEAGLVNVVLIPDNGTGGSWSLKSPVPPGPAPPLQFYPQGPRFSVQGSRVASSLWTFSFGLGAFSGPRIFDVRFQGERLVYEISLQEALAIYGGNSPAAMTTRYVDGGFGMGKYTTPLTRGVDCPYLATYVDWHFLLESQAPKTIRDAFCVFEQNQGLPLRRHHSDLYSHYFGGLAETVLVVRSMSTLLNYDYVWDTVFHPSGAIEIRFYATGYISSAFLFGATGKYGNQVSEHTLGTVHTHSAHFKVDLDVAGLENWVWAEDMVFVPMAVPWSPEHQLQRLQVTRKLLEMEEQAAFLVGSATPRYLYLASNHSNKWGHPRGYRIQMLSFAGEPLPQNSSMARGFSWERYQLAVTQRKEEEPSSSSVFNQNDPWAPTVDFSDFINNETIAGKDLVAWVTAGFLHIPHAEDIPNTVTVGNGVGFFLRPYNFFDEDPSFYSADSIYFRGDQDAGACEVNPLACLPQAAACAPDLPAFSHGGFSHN
Test: Benzylamine stability in lysate of cells expressing T1 SSAO with C-terminal 6xHIS tag, LC/MS/MS
Format: in vitro ADME
Experimental: 3) T1 (Gly27-Asn763) Representing the Enzyme Lacking the Membrane Anchoring Region:
The expression constructs were prepared by cloning these PCR products into the pCDNA5-FRT-To-DEST vector (Invitrogen, Gateway System™). The forward and reverse DNA sequence of each construct was confirmed including expressed sequences and at least 100 base pairs either side of this. Stable cell lines for Flp-In CHO, Flp-In CHO T-Rex, and Flp-In HEK 293 (Invitrogen, Flp-In system™) were generated using these 6 constructs according to manufacturer's instructions. Cells were co-transfected with the regulatory vector, pOG44, and each of the pCDNA5-FRT-To-DEST constructs using Lipfectamine (Invitrogen) according to manufacturer's instructions. Thus, 18 cell lines were generated: CHO Flp-In full-length SSAO; CHO Flp-In full-length SSAO with C-terminal 6×HIS tag; CHO Flp-In T1 SSAO; CHO Flp-In T1 SSAO with C-terminal 6×HIS tag; CHO Flp-In T2 SSAO; CHO Flp-In T2 SSAO with C-terminal 6×HIS tag; CHO T-Rex Flp-In full-length SSAO; CHO T-Rex Flp-In full-length SSAO with C-terminal 6×HIS tag; CHO T-Rex Flp-In T1 SSAO; CHO T-Rex Flp-In T1 SSAO with C-terminal 6×HIS tag; CHO T-Rex Flp-In T2 SSAO; CHO Flp-In T2 SSAO with C-terminal 6×HIS tag; HEK 293 Flp-In full-length SSAO; HEK 293 Flp-In full-length SSAO with C-terminal 6×HIS tag; HEK 293 Flp-In T1 SSAO; HEK 293 Flp-In T1 SSAO with C-terminal 6×HIS tag; HEK 293 Flp-In T2 SSAO; HEK 293 Flp-In T2 SSAO with C-terminal 6×HIS tag.
Adherent CHO cells were cultured at 37° C., 5% CO2 in media containing Ham's F12, 10% fetal bovine serum, 2 mM L-glutamine, 1% Penicillin/Streptomycin, 300 μM hygromycin B. Adherent HEK 293 cells were cultured at 37° C., 5% CO2 in D-MEM (high glucose), 10% fetal bovine serum, 2 mM L-glutamine, and 200 μM hygromycin B. Stable transformants were identified by loss of zeocin resistance. Once the cells were 80% confluent, SSAO expression was induced by the addition of Tetracycline to 1 μg/mL. Following 18 hours, the cells were harvested using a trypsin treatment of 3 minutes, at room temperature. Cells were washed 3 times in phosphate buffered saline before flash freezing in liquid nitrogen.
For the preparation of cell lysate for activity testing, frozen cell pellets were resuspended in lysate buffer containing 10 mM Tris-HCl (pH 7.2), 150 mM NaCl, 1.5 mM MgCl2, 1% v/v NP-40 and incubated for 15 minutes on ice. Lysate was cleared by centrifugation 800×g for 10 minutes, 4° C. and stored in aliquots at −80° C. until use. Proteins were determined using Pierce Coomassie Protein Reagent, according to manufacturer's instructions.
For each assay run, 1 mL of cell lysate (1.5 mg/mL protein) was mixed with benzylamine to 2000 ng/mL final concentration. At each corresponding time point, […] the incubation mixture was transferred to a microcentrifuge tube (1.7 mL) and mixed with 50 μL of acetonitrile. The tubes were vortex mixed briefly to ensure complete mixing and then centrifuged at 10,000×g for 5 minutes. The supernatant was removed and 50 μL was transferred to an autosampler vial and mixed with 50 μL of water before LC/MS/MS analysis. Benzylamine remaining in the lysate was analyzed with LC/MS/MS method.
LC/MS/MS analysis was performed with a PE Sciex API 3000 mass spectrometer under the following conditions listed below and in Tables 1 and 2: […]

Benzylamine Remaining (%) (CHO Flp-In T-Rex lysate, 0 min): 100%
Benzylamine Remaining (%) (CHO Flp-In T-Rex lysate, 10 min): 95%
Benzylamine Remaining (%) (CHO Flp-In T-Rex lysate, 2 h): 93%
Benzylamine Remaining (%) (CHO Flp-In lysate, 0 min): 100%
Benzylamine Remaining (%) (CHO Flp-In lysate, 10 min): 101%
Benzylamine Remaining (%) (CHO Flp-In lysate, 2 h): 98%
Benzylamine Remaining (%) (HEK293 lysate, 0 min): 100%
Benzylamine Remaining (%) (HEK293 lysate, 10 min): 111%
Benzylamine Remaining (%) (HEK293 lysate, 2 h): 103%
SMILES: NCc1ccccc1 [Benzylamine]

— US8883410B2, “Method for determining the stability of organic methyleneamines in the presence of semicarbazide-sensitive amine oxidase” (Sanofi, priority 2007, dated 2014)
